What all share (assay type): functional
Assay [1] concerns Proteus mirabilis. As to the kind of experiment: Antibacterial activity against permeable beta-lactamase producing Proteus mirabilis 355.
The test system of assay [2] is Pseudomonas aeruginosa. As to the kind of experiment: Antibacterial activity against Pseudomonas aeruginosa 1911E.
Assay [3] has as its system Clostridium perfringens. As to the kind of experiment: Antibacterial activity against Clostridium perfringens 615E.
In assay [4] the test system is Staphylococcus aureus. As to the kind of experiment: Antibacterial activity against penicillin sensitive Staphylococcus aureus 663E.
The subject of assay [5] is Bacteroides fragilis. As to the kind of experiment: Antibacterial activity against Bacteroides fragilis 2017E.
The test system of assay [6] is Staphylococcus aureus. In words: Antibacterial activity against methicillin resistant Staphylococcus aureus COL.
The subject of assay [7] is Enterococcus faecalis. As to the kind of experiment: Antibacterial activity against Enterococcus faecalis 850.
Assay [8] has as its system Escherichia coli. As to the kind of experiment: Antibacterial activity against permeable Escherichia coli DC2.
In assay [9] the test system is Enterobacter cloacae. As to the kind of experiment: Antibacterial activity against permeable beta-lactamase producing Enterobacter cloacae 3647.
Assay [10] relates to Haemophilus influenzae. In words: Antibacterial activity against Haemophilus influenzae 49247.
For assay [11], the system named is Staphylococcus aureus. As to the kind of experiment: Antibacterial activity against methicillin resistant Staphylococcus aureus 1131.
Assay [12] deals with Pseudomonas aeruginosa. As to the kind of experiment: Antibacterial activity against permeable mutant Pseudomonas aeruginosa 2033E.
For assay [13], the system named is Pseudomonas aeruginosa. As to the kind of experiment: Antibacterial activity against Pseudomonas aeruginosa 2032E WT.
In assay [14] the test system is Staphylococcus aureus. In words: Antibacterial activity against beta-lactamase producing Staphylococcus aureus 853E.
The test system of assay [15] is Escherichia coli. In words: Antibacterial activity against wild Escherichia coli DC0.
The test system of assay [16] is Escherichia coli. As to the kind of experiment: Antibacterial activity against permeable beta-lactamase producing Escherichia coli DC2 TEML.

Some results are limits rather than exact numbers.

Turning to `CC1(C)CCC2(C)CCC(C)(C)NC2=N1.CO[C@H]1CC[C@H]2C(=C(C(=O)O)N3C(=O)[C@H]([C@@H](C)O)[C@@H]23)C1`, the MIC was 4 µg/mL in assay [1]; more than 32 µg/mL in assay [2]; 0.5 µg/mL in assay [3]; 0.25 µg/mL in assay [4]; 1 µg/mL in assay [5]; more than 32 µg/mL in assay [6]. Moreover, the MIC in assay [7] was 4 µg/mL; in assay [8], 1 µg/mL; in assay [9], 1 µg/mL; in [10] it was 0.5 µg/mL; in [11], 32 µg/mL; in assay [12] it was 1 µg/mL. The MIC in [13] was more than 32 µg/mL; in assay [14], 0.5 µg/mL; in assay [15], 1 µg/mL; in assay [16], 1 µg/mL.

In the case of `CC1(C)CCC2(C)CCC(C)(C)NC2=N1.CO[C@@H]1CC[C@H]2C(=C(C(=O)O)N3C(=O)[C@H]([C@@H](C)O)[C@@H]23)C1`, the MIC is 32 µg/mL in assay [1]; more than 32 µg/mL in [2]; 8 µg/mL in [3]; 1 µg/mL in assay [4]; 32 µg/mL in [5]; more than 32 µg/mL in assay [6]. The MIC in assay [7] was more than 32 µg/mL; in [8], 0.5 µg/mL; in assay [9], 16 µg/mL; in [10], 16 µg/mL; in assay [11], more than 32 µg/mL; in [12], 16 µg/mL. Moreover, the MIC in [13] is more than 32 µg/mL; in assay [14], 1 µg/mL; in assay [15], 16 µg/mL; in [16], 1 µg/mL.

Take `C[C@@H](O)[C@H]1C(=O)N2C(C(=O)O)=C(SCCNC=N)C[C@H]12.O` [IMIPENEM]: the MIC was 1 µg/mL in [1]; 4 µg/mL in [2]; 0.06 µg/mL in [3]; 0.13 µg/mL in assay [4]; 0.13 µg/mL in assay [5]; more than 32 µg/mL in [6]. Besides, the MIC was 1 µg/mL in assay [7]; 0.5 µg/mL in assay [8]; 2 µg/mL in assay [9]; 1 µg/mL in assay [10]; 4 µg/mL in [11]; 0.5 µg/mL in [12]. Besides, the MIC in assay [13] is 4 µg/mL; in [14], 0.13 µg/mL; in assay [15] it was 0.5 µg/mL; in [16], 0.5 µg/mL.
